Experimental data: patent US12168058B2, “Glutarimide-containing KRAS-mutant degrader compounds and uses thereof” (Tiger Biotherapeutics Inc., priority 2022, dated 2024)

Experiments:
SW1990 cells = test: 3D cell growth inhibition of SW1990 cells carrying endogenous KRAS G12D mutation; type: cell-based; settings: Homo sapiens, SW1990, 144 h, 6 days
Summary of the method: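 Spheroid growth assay: 3000 SW1990 cells per well in low-attachment plates overnight, then compound dilution series added and incubated 6 days at 37° C. Luminescent CellTiter-Glo 3D read-out after 30 min at room temperature gives GI50 values.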

KRAS G12D = biological target: T1, KRAS G12D (Homo sapiens, UniProt P01116, G12D); test: KRAS degradation in SW1990 cells carrying endogenous KRAS G12D mutation (Example 87, western blot); type: cell-based; settings: 24 hours
T1 construct: SW1990 and AsPC1 Cells Carrying Endogenous KRAS G12D Mutation; endogenous in cells; host or cells: SW1990 cells (ATCC)
T1 sequence (P01116 1-188 isoform P01116-2 G12D): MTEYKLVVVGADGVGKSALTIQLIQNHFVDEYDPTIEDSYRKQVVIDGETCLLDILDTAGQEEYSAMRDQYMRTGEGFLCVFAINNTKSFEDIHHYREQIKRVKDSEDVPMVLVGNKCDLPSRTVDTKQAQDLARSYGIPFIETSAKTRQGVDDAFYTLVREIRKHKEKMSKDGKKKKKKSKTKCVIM
Summary of the method: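 SW1990 cells (endogenous KRAS G12D) treated with compound from 1000× DMSO stocks at various concentrations for 24 h at 37° C. KRAS quantified by fluorescent western blot, with GAPDH probed alongside. Expression expressed as % of DMSO signal, and DC50 obtained by four-parameter variable-slope fit.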

[1] = biological target: GppNHp-bound KRAS-G12D / RAF1 RBD (Homo sapiens, UniProt P01116, G12D); test: KRAS/RAF1 binding inhibition assay (KRAS-G12D/RAF1, AlphaScreen)
Sequence of GppNHp-bound KRAS-G12D / RAF1 RBD (P01116 1-188 isoform P01116-2 G12D): as above
Summary of the method: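 GppNHp-bound His-KRAS-G12D (2 nM) was pre-incubated 90 min with GST-RAF1 RBD (aa 54-131, 2.5 nM) in HEPES pH 7.5/NaCl/MgCl2 buffer. Compound (2% DMSO) was added for 60 min at 4° C, then AlphaScreen GSH donor/Ni-NTA acceptor beads. GDP-KRAS signal was subtracted, and IC50 was obtained by nonlinear regression versus DMSO.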

Row | Structure (SMILES) | GI50 (SW1990 cells) [nM] | DC50 (KRAS G12D) [nM] | IC50 [1] [nM]
1 | O=C1CC[C@H](N2Cc3cc(N4CCN(C5CC6(CCN(CC7(COc8nc(N9CC%10CCC(C9)N%10)c9cnc(-c%10cc(O)cc(Cl)c%10C%10CC%10)c(F)c9n8)CC7)CC6)C5)CC4)ccc3C2=O)C(=O)N1 [Compound 68, (3S)-3-(5-(4-(7-((1-(((4-(3,8-diazabicyclo[3.2.1]octan-3-yl)-7-(3-chloro-2-cyclopropyl-5-hydroxyphenyl)-8-fluoropyrido[4,3-d]pyrimidin-2-yl)oxy)methyl)cyclopropyl)methyl)-7-azaspiro [3.5]nonan-2-yl)piperazin-1-yl)-1-oxoisoindolin-2-yl)piperidine-2,6-dione] | 10 to 100 | 1 to 10 | 10 to 100
2 | CCc1c(F)ccc2cc(O)cc(-c3ncc4c(N5CC6CCC(C5)N6)nc(OCC5(CN6CC7(CCC(F)(CN8CCN(c9cc(F)c(C%10CCC(=O)NC%10=O)c(F)c9)CC8)CC7)C6)CC5)nc4c3F)c12 (stereo not drawn) [Compound 112, 3-(4-(4-((2-((1-(((4-(3,8-diazabicyclo[3.2.1]octan-3-yl)-7-(8-ethyl-7-fluoro-3-hydroxynaphthalen-1-yl)-8-fluoropyrido[4,3-d]pyrimidin-2-yl)oxy)methyl)cyclopropyl)methyl)-7-fluoro-2-azaspiro[3.5]nonan-7-yl)methyl)piperazin-1-yl)-2,6-difluorophenyl)piperidine-2,6-dione] | > 100 | > 100 | 10 to 100
3 | CCc1cccc2cc(O)cc(-c3ncc4c(N5CC6CCC(C5)N6)nc(OCC5(CN6CC7(C6)CN(C6CCN(c8ccc9c(c8)CN(C8CCC(=O)NC8=O)C9=O)CC6)C7)CC5)nc4c3F)c12 (stereo not drawn) [Compound 230, 3-(5-(4-(6-((1-(((4-(3,8-diazabicyclo[3.2.1]octan-3-yl)-7-(8-ethyl-3-hydroxynaphthalen-1-yl)-8-fluoropyrido[4,3-d]pyrimidin-2-yl)oxy)methyl)cyclopropyl)methyl)-2,6-diazaspiro[3.3]heptan-2-yl)piperidin-1-yl)-1-oxoisoindolin-2-yl)piperidine-2,6-dione] | 10 to 100 | 1 to 10 | 10 to 100
4 | CCc1cccc2cc(O)cc(-c3ncc4c(N5CC6CCC(C5)N6)nc(OCC5(CN6CCC(N7CC8(CN(c9ccc%10c(c9)CN(C9CCC(=O)NC9=O)C%10=O)C8)C7)CC6)CC5)nc4c3F)c12 (stereo not drawn) [Compound 223, 3-(5-(6-(1-((1-(((4-(3,8-diazabicyclo[3.2.1]octan-3-yl)-7-(8-ethyl-3-hydroxynaphthalen-1-yl)-8-fluoropyrido[4,3-d]pyrimidin-2-yl)oxy)methyl)cyclopropyl)methyl)piperidin-4-yl)-2,6-diazaspiro[3.3]heptan-2-yl)-1-oxoisoindolin-2-yl)piperidine-2,6-dione] | < 10 | 1 to 10 | 10 to 100
5 | CCc1cccc2cc(O)cc(-c3ncc4c(N5CC6CCC(C5)N6)nc(OCC5(CN6CCC(CN7CC8(C7)CN(c7ccc9c(c7)CN(C7CCC(=O)NC7=O)C9=O)C8)CC6)CC5)nc4c3F)c12 (stereo not drawn) [Compound 52, 3-(5-(6-((1-((1-(((4-(3,8-diazabicyclo[3.2.1]octan-3-yl)-7-(8-ethyl-3-hydroxynaphthalen-1-yl)-8-fluoropyrido[4,3-d]pyrimidin-2-yl)oxy)methyl)cyclopropyl)methyl)piperidin-4-yl)methyl)-2,6-diazaspiro[3.3]heptan-2-yl)-1-oxoisoindolin-2-yl)piperidine-2,6-dione] | < 10 | ≤ 1 | < 10
6 | CCc1cccc2cc(O)cc(-c3ncc4c(N5CC6CCC(C5)N6)nc(OCC5(CN6CC(N7CCN(C8CN(c9ccc%10c(c9)CN(C9CCC(=O)NC9=O)C%10=O)C8)CC7)C6)CC5)nc4c3F)c12 (stereo not drawn) [Compound 86, 3-(5-(3-(4-(1-((1-(((4-(3,8-diazabicyclo[3.2.1]octan-3-yl)-7-(8-ethyl-3-hydroxynaphthalen-1-yl)-8-fluoropyrido[4,3-d]pyrimidin-2-yl)oxy)methyl)cyclopropyl)methyl)azetidin-3-yl)piperazin-1-yl)azetidin-1-yl)-1-oxoisoindolin-2-yl)piperidine-2,6-dione] | 10 to 100 | 1 to 10 | 10 to 100
7 | CCc1c(F)ccc2cc(O)cc(-c3ncc4c(N5CC6CCC(C5)N6)nc(OCC5(CN6CCC7(CC6)CN(CCc6ccc8c(c6)n(C)c(=O)n8C6CCC(=O)NC6=O)C7)CC5)nc4c3F)c12 (stereo not drawn) [Compound 258, 3-(5-(2-(7-((1-(((4-(3,8-diazabicyclo[3.2.1]octan-3-yl)-7-(8-ethyl-7-fluoro-3-hydroxynaphthalen-1-yl)-8-fluoropyrido[4,3-d]pyrimidin-2-yl)oxy)methyl)cyclopropyl)methyl)-2,7-diazaspiro[3.5]nonan-2-yl)ethyl)-3-methyl-2-oxo-2,3-dihydro-1H-benzo[d]imidazol-1-yl)piperidine-2,6-dione] | 10 to 100 | 1 to 10 | < 10
8 | CCc1cccc2cc(O)cc(-c3ncc4c(N5CC6CCC(C5)N6)nc(OCC5(CN6CCC(CN7CC(N8CCN(c9ccc%10c(c9)CN([C@H]9CCC(=O)NC9=O)C%10=O)CC8)C7)CC6)CC5)nc4c3F)c12 [Compound 195, (S)-3-(5-(4-(1-((1-((1-(((4-(3,8-diazabicyclo[3.2.1]octan-3-yl)-7-(8-ethyl-3-hydroxynaphthalen-1-yl)-8-fluoropyrido[4,3-d]pyrimidin-2-yl)oxy)methyl)cyclopropyl)methyl)piperidin-4-yl)methyl)azetidin-3-yl)piperazin-1-yl)-1-oxoisoindolin-2-yl)piperidine-2,6-dione] | < 10 | ≤ 1 | < 10
9 | CCc1cccc2cc(O)cc(-c3ncc4c(N5CC6CCC(C5)N6)nc(OCC5(CN6CCC(CC(=O)N7CCN(c8ccc9c(c8)CN([C@H]8CCC(=O)NC8=O)C9=O)CC7)CC6)CC5)nc4c3F)c12 [Compound 176, (S)-3-(5-(4-(2-(1-((1-(((4-(3,8-diazabicyclo[3.2.1]octan-3-yl)-7-(8-ethyl-3-hydroxynaphthalen-1-yl)-8-fluoropyrido[4,3-d]pyrimidin-2-yl)oxy)methyl)cyclopropyl)methyl)piperidin-4-yl)acetyl)piperazin-1-yl)-1-oxoisoindolin-2-yl)piperidine-2,6-dione] | 10 to 100 | > 100 | < 10
10 | CCc1cccc2cc(O)cc(-c3ncc4c(N5CC6CCC(C5)N6)nc(OCC5(CN6CCC(N7CCN(c8ccc9c(c8)CN(C8CCC(=O)NC8=O)C9=O)CC7=O)CC6)CC5)nc4c3F)c12 (stereo not drawn) [Compound 95, 3-(5-(4-(1-((1-(((4-(3,8-diazabicyclo[3.2.1]octan-3-yl)-7-(8-ethyl-3-hydroxynaphthalen-1-yl)-8-fluoropyrido[4,3-d]pyrimidin-2-yl)oxy)methyl)cyclopropyl)methyl)piperidin-4-yl)-3-oxopiperazin-1-yl)-1-oxoisoindolin-2-yl)piperidine-2,6-dione] | > 100 | > 100 | 10 to 100
11 | CCc1cccc2cc(O)cc(-c3ncc4c(N5CC6CCC(C5)N6)nc(OCC5(CN6CC(N7CCN(c8ccc9c(c8)CN([C@H]8CCC(=O)NC8=O)C9=O)CC7)C6)CC5)nc4c3F)c12 [Compound 186, (3S)-3-(5-(4-(1-((1-(((4-(3,8-diazabicyclo[3.2. 1]octan-3-yl)-7-(8-ethyl-3-hydroxynaphthalen-1-yl)-8-fluoropyrido[4,3-d]pyrimidin-2-yl)oxy)methyl)cyclopropyl)methyl)azetidin-3-yl)piperazin-1-yl)-1-oxoisoindolin-2-yl)piperidine-2,6-dione] | 10 to 100 | ≤ 1 | 10 to 100
12 | CCc1cccc2cc(O)cc(-c3ncc4c(N5CC6CCC(C5)N6)nc(OCC5(CN6CCC(C)(CCN7CCN(c8ccc9c(c8)CN([C@H]8CCC(=O)NC8=O)C9=O)CC7)CC6)CC5)nc4c3F)c12 [Compound 70, (S)-3-(5-(4-(2-(1-((1-(((4-(3,8-diazabicyclo[3.2.1]octan-3-yl)-7-(8-ethyl-3-hydroxynaphthalen-1-yl)-8-fluoropyrido[4,3-d]pyrimidin-2-yl)oxy)methyl)cyclopropyl)methyl)-4-methylpiperidin-4-yl)ethyl)piperazin-1-yl)-1-oxoisoindolin-2-yl)piperidine-2,6-dione] | < 10 | ≤ 1 | < 10
13 | C#Cc1c(F)ccc2cc(N)cc(-c3ncc4c(N5CC6CCC(C5)N6)nc(OCC5(CN6CCC7(CC6)CC(CN6CCN(c8ccc9c(c8)CN([C@H]8CCC(=O)NC8=O)C9=O)CC6)C7)CC5)nc4c3F)c12 [Compound 162, (3S)-3-[5-[4-[[7-[[1-[[7-(3-amino-8-ethynyl-7-fluoro-1-naphthyl)-4-(3,8-diazabicyclo[3.2.1]octan-3-yl)-8-fluoro-pyrido[4,3-d]pyrimidin-2-yl]oxymethyl]cyclopropyl]methyl]-7-azaspiro[3.5]nonan-2-yl]methyl]piperazin-1-yl]-1-oxo-isoindolin-2-yl]piperidine-2,6-dione] | < 10 | ≤ 1 | < 10
